Measured values taken from US5843735A, “Aklavinone C-11 hydroxylase, gene coding for same, expression vector therefor, and process for preparing hybrid antibiotics by using said vector” (priority 1995, dated 1998).
Where two headings read alike, the source gives them in different places.

What was measured:
[1] = Solubility in organic solvents; details: methanol (MeOH), chloroform (CHCl3)
[2] = system: human cancer cell lines; test: Anticancer / growth inhibiting activity against the human cancer cell line panel, overall; assay type: cell-based; details: for growth inhibiting activities compared with aclacinomycin A: various human cancer cell lines
Method: (§1) The anticancer activities of aclacinomycin X, 11-hydroxy aclacinomycin X and 11-hydroxy aclacinomycin A were determined by using a reduced human cancer cell line panel(supplier: National Cancer Institute, U.S.A.) in accordance with the method of National Cancer Institute, U.S.A. (Monks, A., et al., J. Natl. Cancer Inst., 83, 757-766(1991)), and the results are shown in Table I.

[3] = system: OVCAR-3; test: Anticancer activity, reduced human cancer cell line panel (NCI method), Ovarian Cancer; assay type: cell-based; details: OVCAR-3, read-out: Log10 LC50 (converted)
Method: as §1

[4] = system: MCF7; test: Anticancer activity, reduced human cancer cell line panel (NCI method), Breast Cancer; assay type: cell-based; details: MCF7, read-out: Log10 LC50 (converted)
Method: as §1

[5] = system: MDA-N; test: as above; assay type: cell-based; details: read-out: Log10 LC50 (converted)
Method: as §1

[6] = system: SK-MEL-2; test: Anticancer activity, reduced human cancer cell line panel (NCI method), Melanoma; assay type: cell-based; details: SK-MEL-2, read-out: Log10 LC50 (converted)
Method: as §1

[7] = system: MALME-3M; test: as above; assay type: cell-based; details: read-out: Log10 LC50 (converted)
Method: as §1

[8] = system: PC-3; test: Anticancer activity, reduced human cancer cell line panel (NCI method), Prostate Cancer; assay type: cell-based; details: PC-3, read-out: Log10 LC50 (converted)
Method: as §1

[9] = system: DU-145; test: as above; assay type: cell-based; details: DU-145, read-out: Log10 LC50 (converted)
Method: as §1

[10] = system: EKVX; test: Anticancer activity, reduced human cancer cell line panel (NCI method), Non-Small Cell Lung Cancer; assay type: cell-based; details: read-out: Log10 LC50 (converted)
Method: as §1

[11] = system: A-549; test: as above; assay type: cell-based
Method: as §1

[12] = system: HT29; test: Anticancer activity, reduced human cancer cell line panel (NCI method), Colon Cancer; assay type: cell-based
Method: as §1

[13] = system: UO-31; test: Anticancer activity, reduced human cancer cell line panel (NCI method), Renal Cancer; assay type: cell-based; details: UO-31, read-out: Log10 LC50 (converted)
Method: as §1

[14] = system: 786-0; test: as above; assay type: cell-based; details: 786-0, read-out: Log10 LC50 (converted)
Method: as §1

[15] = system: K-562; test: Anticancer activity, reduced human cancer cell line panel (NCI method), Leukemia; assay type: cell-based
Method: as §1

[16] = system: HL-60 TB; test: as above; assay type: cell-based; details: for LC50 (50% lethal concentration): Leukemia, HL-60 TB, read-out: Log10 LC50 (converted)
Method: as §1

[17] = system: SF-268; test: Anticancer activity, reduced human cancer cell line panel (NCI method), CNS Cancer; assay type: cell-based; details: SF-268, read-out: Log10 LC50 (converted)
Method: as §1

[18] = system: U251; test: as above; assay type: cell-based
Method: as §1

[19] = system: SK-OV-3; test: Anticancer activity, reduced human cancer cell line panel (NCI method), Ovarian Cancer; assay type: cell-based; details: SK-OV-3, read-out: Log10 LC50 (converted)
Method: as §1

[20] = system: HCC-2298; test: Anticancer activity, reduced human cancer cell line panel (NCI method), Colon Cancer; assay type: cell-based
Method: as §1

[21] = A549, Non-Small Cell Lung Cancer, A-549, read-out: Log10 LC50 (converted)
[22] = HT-29, Colon Cancer, HT29, read-out: Log10 LC50 (converted)
[23] = K562, Leukemia, K-562, read-out: Log10 LC50 (converted)
[24] = U-251, CNS Cancer, U251, read-out: Log10 LC50 (converted)

Structure (SMILES) | dissolves easily (solubility) [1] | growth inhibiting activities compared with aclacinomycin A [2] | CC50 ([3]; Ovarian Cancer) [µM] | LC50 (50% lethal concentration) ([4]; Breast Cancer) [µM] | CC50 ([5]; Breast Cancer) [µM] | CC50 ([6]; Melanoma) [µM] | LC50 (concentration killing 50% of cells) ([7]; Melanoma, MALME-3M) [µM] | LC50 ([8]; Prostate Cancer) [µM] | LC50 ([9]; Prostate Cancer) [µM] | CC50 ([10]; Non-Small Cell Lung Cancer) [µM] | LC50 [11, 21] [µM] | CC50 [12, 22] [µM] | CC50 ([13]; Renal Cancer) [µM] | LC50 (50% lethal concentration) ([14]; Renal Cancer) [µM] | CC50 [15, 23] [µM] | LC50 (50% lethal concentration) [16] [µM] | CC50 ([17]; CNS Cancer) [µM] | CC50 [18, 24] [µM] | also measured
CC[C@@]1(O)C[C@H](O[C@H]2C[C@H](N(C)C)[C@H](O[C@H]3C[C@@H]4OC5CC(=O)C(C)OC5O[C@@H]4[C@H](C)O3)[C@H](C)O2)c2c(O)c3c(c(O)c2[C@H]1C(=O)OC)C(=O)c1cccc(O)c1C3=O (stereo partly drawn) [11-hydroxy aclacinomycin B] | dissolves easily in MeOH and CHC13 | – | – | – | – | – | – | – | – | – | – | – | – | – | – | – | – | – | –
CC[C@@]1(O)C[C@H](O[C@H]2C[C@H](N(C)C)[C@H](O[C@H]3C[C@H](O)[C@H](O[C@@H]4O[C@@H](C)C(=O)C=C4N)[C@H](C)O3)[C@H](C)O2)c2c(O)c3c(c(O)c2[C@H]1C(=O)OC)C(=O)c1cccc(O)c1C3=O [11-Hydroxy aclacinomycin X, 11-hydroxy aclacinomycin X] | dissolves easily in MeOH or CHCl3 | higher growth inhibiting activities than aclacinomycin A | > 100 | 30.9 | > 100 | < 0.01 | 0.0537 | 6.76 | 41.7 | 0.977 | 21.4 | 47.9 | 15.5 | 4.57 | 7.59 | 0.234 | > 100 | > 100 | anticancer activities compared with aclacinomycin X ([2]; leukemia, melanoma and breast cancer cell lines): higher than aclacinomycin X
CC[C@@]1(O)C[C@H](O[C@H]2C[C@H](N(C)C)[C@H](O[C@H]3C[C@H](O)[C@H](O[C@@H]4O[C@@H](C)C(=O)C=C4N)[C@H](C)O3)[C@H](C)O2)c2c(cc3c(c2O)C(=O)c2c(O)cccc2C3=O)[C@H]1C(=O)OC [Aclacinomycin X, aclacinomycin X] | dissolves easily in methanol or chloroform | higher growth inhibiting activities than aclacinomycin A | > 100 | 43.7 | > 100 | 0.0525 | 0.562 | 8.32 | 30.2 | 18.6 | 4.07 | 30.9 | 26.3 | 18.2 | 60.3 | 30.9 | 11.2 | 18.2 | selective anticancer activities ([2]; colon cancer, melanoma and breast cancer cell lines): selective anticancer activities against colon cancer, melanoma and breast cancer cell lines; CC50 ([19]; Ovarian Cancer): > 100 µM; CC50 ([20]; Colon Cancer, HCC-2298, read-out: Log10 LC50 (converted)): 0.191 µM
CC[C@@]1(O)C[C@H](O[C@H]2C[C@H](N(C)C)[C@H](O)[C@H](C)O2)c2c(O)c3c(c(O)c2[C@H]1C(=O)OC)C(=O)c1cccc(O)c1C3=O [11-Hydroxy aclacinomycin T, 11-hydroxy aclacinomycin T] | dissolves easily in MeOH or CHC13 | – | – | – | – | – | – | – | – | – | – | – | – | – | – | – | – | – | –
CC[C@@]1(O)C[C@H](O[C@H]2C[C@H](N(C)C)[C@H](O[C@H]3C[C@H](O)[C@H](O[C@H]4CCC(=O)[C@H](C)O4)[C@H](C)O3)[C@H](C)O2)c2c(O)c3c(c(O)c2[C@H]1C(=O)OC)C(=O)c1cccc(O)c1C3=O [11-Hydroxy aclacinomycin A, 11-hydroxy aclacinomycin A] | dissolves easily in MeOH or CHCL3 | higher growth inhibiting activities than aclacinomycin A | – | – | – | – | – | – | – | – | – | – | – | – | – | – | – | – | anticancer activity ([2]; leukemia, colon cancer and melanoma cell lines): high anticancer activity; CC50 [3]: 72.4 µM; CC50 [19]: 38.9 µM; LC50 (50% lethal concentration) [4]: 25.1 µM; CC50 [5]: 100 µM; CC50 [6]: < 0.01 µM; LC50 (concentration killing 50% of cells) ([7]; Malme-3M): 0.0676 µM; LC50 [8]: 14.5 µM; LC50 [9]: 24.5 µM; CC50 [10]: 0.257 µM; LC50 ([11]; A549, read-out: Log10 LC50 (converted)): 24.5 µM; CC50 ([20]; read-out: Log10 LC50 (converted)): < 0.01 µM; CC50 ([12]; HT-29, read-out: Log10 LC50 (converted)): 12.9 µM; CC50 [13]: 19.1 µM; LC50 (50% lethal concentration) [14]: 8.32 µM; CC50 ([15]; K562, read-out: Log10 LC50 (converted)): 1.78 µM; CC50 ([16]; HL-60, read-out: Log10 LC50 (converted)): < 0.01 µM; CC50 [17]: 79.4 µM; CC50 ([18]; U-251, read-out: Log10 LC50 (converted)): 56.2 µM
